Measured values reported in PubChem BioAssay AID2060894 (Molecular Pharmacology Branch, DTP, NCI, 2025).

Tested on: K12877-001-R-J1-PDC complex spheroid viability
Test: Anticancer human tumor K12877-001-R-J1-PDC patient-derived lung adenocarcinoma cell line growth inhibition [RAS]
Conditions: for IC50: curve of first compound; for viability, T/C: stronger effect = lower value; active = viability on the fitted dose curve at most 10% of control; inactive = the rest
Summary of the method: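 Tumour cells grown as complex spheroids with HUVEC endothelial cells and mesenchymal stem cells, treated with RAS pathway inhibitor combinations. Each agent spans half-log steps from near clinical Cmax, or 10 microM where Cmax is unknown.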

[1] = second compound 0.00316 µM, first compound 0.000949 µM
[2] = second compound 0.00316 µM, first compound 0.003 µM
[3] = second compound 0.00316 µM, first compound 0.00949 µM
[4] = second compound 0.00316 µM, first compound 0.03 µM
[5] = second compound 0.00316 µM, first compound 0.0949 µM
[6] = second compound 0.00316 µM, first compound 0.3 µM
[7] = second compound 0.01 µM, first compound 0.000949 µM
[8] = second compound 0.01 µM, first compound 0.003 µM
[9] = second compound 0.01 µM, first compound 0.00949 µM
[10] = second compound 0.01 µM, first compound 0.03 µM
[11] = second compound 0.01 µM, first compound 0.0949 µM
[12] = second compound 0.01 µM, first compound 0.3 µM
[13] = second compound 0.0316 µM, first compound 0.000949 µM
[14] = second compound 0.0316 µM, first compound 0.003 µM
[15] = second compound 0.0316 µM, first compound 0.00949 µM
[16] = second compound 0.0316 µM, first compound 0.03 µM
[17] = second compound 0.0316 µM, first compound 0.0949 µM
[18] = second compound 0.0316 µM, first compound 0.3 µM
[19] = second compound 0.1 µM, first compound 0.000949 µM
[20] = second compound 0.1 µM, first compound 0.003 µM
[21] = second compound 0.1 µM, first compound 0.00949 µM
[22] = second compound 0.1 µM, first compound 0.03 µM
[23] = second compound 0.1 µM, first compound 0.0949 µM
[24] = second compound 0.1 µM, first compound 0.3 µM
[25] = second compound 0.316 µM, first compound 0.000949 µM
[26] = second compound 0.316 µM, first compound 0.003 µM
[27] = second compound 0.316 µM, first compound 0.00949 µM
[28] = second compound 0.316 µM, first compound 0.03 µM
[29] = second compound 0.316 µM, first compound 0.0949 µM
[30] = second compound 0.316 µM, first compound 0.3 µM
[31] = second compound 1 µM, first compound 0.000949 µM
[32] = second compound 1 µM, first compound 0.003 µM
[33] = second compound 1 µM, first compound 0.00949 µM
[34] = second compound 1 µM, first compound 0.03 µM
[35] = second compound 1 µM, first compound 0.0949 µM
[36] = second compound 1 µM, first compound 0.3 µM
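Note: spheroids exposed to agents for one week before readout.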
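Throughout, for viability, T/C: tumour cells co-cultured with HUVEC and mesenchymal stem cells in spheroids.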

CC(=O)OC12COC1CC(O)C1(C)C(=O)C(O)C3=C(C)C(OC(=O)C(O)C(NC(=O)OC(C)(C)C)c4ccccc4)CC(O)(C(OC(=O)c4ccccc4)C21)C3(C)C (stereo unspecified) + C=CC(=O)N1CCN(c2nc(OCC3CCCN3C)nc3c(F)c(-c4nc(N)cc(C)c4C(F)(F)F)c(Cl)cc23)C(C)C1
< 31.6 nM: IC50 (second compound 0.00316 µM) | IC50 (second compound 0.01 µM) | IC50 (second compound 0.0316 µM) | IC50 (second compound 0.1 µM) | IC50 (second compound 0.316 µM) | IC50 (second compound 1 µM)
active: viability, T/C (second compound 0.00316 µM, first compound 0.0316 µM) 5.23% | viability, T/C (second compound 0.00316 µM, first compound 0.1 µM) 4.77% | viability, T/C (second compound 0.00316 µM, first compound 0.316 µM) 3.44% | viability, T/C (second compound 0.00316 µM, first compound 1 µM) 4.18% | viability, T/C (second compound 0.00316 µM, first compound 3.16 µM) 4.77% | viability, T/C (second compound 0.00316 µM, first compound 10 µM) 16.1% | viability, T/C (second compound 0.01 µM, first compound 0.0316 µM) 5.39% | viability, T/C (second compound 0.01 µM, first compound 0.1 µM) 5.01% | viability, T/C (second compound 0.01 µM, first compound 0.316 µM) 3.61% | viability, T/C (second compound 0.01 µM, first compound 1 µM) 2.92% | viability, T/C (second compound 0.01 µM, first compound 3.16 µM) 3.84% | viability, T/C (second compound 0.01 µM, first compound 10 µM) 13.6% | viability, T/C (second compound 0.0316 µM, first compound 0.0316 µM) 6.48% | viability, T/C (second compound 0.0316 µM, first compound 0.1 µM) 4.68% | viability, T/C (second compound 0.0316 µM, first compound 0.316 µM) 3.7% | viability, T/C (second compound 0.0316 µM, first compound 1 µM) 2.91% | viability, T/C (second compound 0.0316 µM, first compound 3.16 µM) 3.42% | viability, T/C (second compound 0.0316 µM, first compound 10 µM) 10.1% | viability, T/C (second compound 0.1 µM, first compound 0.0316 µM) 6.61% | viability, T/C (second compound 0.1 µM, first compound 0.1 µM) 4.59% | viability, T/C (second compound 0.1 µM, first compound 0.316 µM) 2.95% | viability, T/C (second compound 0.1 µM, first compound 1 µM) 3.77% | viability, T/C (second compound 0.1 µM, first compound 3.16 µM) 5.42% | viability, T/C (second compound 0.1 µM, first compound 10 µM) 11.1% | viability, T/C (second compound 0.316 µM, first compound 0.0316 µM) 5.94% | viability, T/C (second compound 0.316 µM, first compound 0.1 µM) 3.96% | viability, T/C (second compound 0.316 µM, first compound 0.316 µM) 3.29% | viability, T/C (second compound 0.316 µM, first compound 1 µM) 3.54% | viability, T/C (second compound 0.316 µM, first compound 3.16 µM) 4.12% | viability, T/C (second compound 0.316 µM, first compound 10 µM) 10.3% | viability, T/C (second compound 1 µM, first compound 0.0316 µM) 4.92% | viability, T/C (second compound 1 µM, first compound 0.1 µM) 3.77% | viability, T/C (second compound 1 µM, first compound 0.316 µM) 4.87% | viability, T/C (second compound 1 µM, first compound 1 µM) 4.09% | viability, T/C (second compound 1 µM, first compound 3.16 µM) 4.48% | viability, T/C (second compound 1 µM, first compound 10 µM) 11%

CC1(C)CCC(Nc2ncc(C(F)(F)F)c(-c3c[nH]c4c(P(C)(C)=O)c(C#N)ccc34)n2)CN1 (stereo unspecified) + C=CC(=O)N1CCN(c2nc(OCC3CCCN3C)nc3c(F)c(-c4nc(N)cc(C)c4C(F)(F)F)c(Cl)cc23)C(C)C1
38.5 nM: IC50 (second compound 0.1 µM)
32.5 nM: IC50 (second compound 0.00316 µM)
inactive: viability, T/C [1] 107% | viability, T/C [2] 85.1% | viability, T/C [3] 74.4% | viability, T/C [4] 53.2% | viability, T/C [5] 30.1% | viability, T/C [6] 36.3% | viability, T/C [7] 92.3% | viability, T/C [8] 78.3% | viability, T/C [9] 62.5% | viability, T/C [10] 59.1% | viability, T/C [11] 47.4% | viability, T/C [12] 43.4% | viability, T/C [13] 87% | viability, T/C [14] 73.6% | viability, T/C [15] 63.9% | viability, T/C [16] 57.2% | viability, T/C [17] 42% | viability, T/C [18] 33.1% | viability, T/C [19] 80.1% | viability, T/C [20] 76.8% | viability, T/C [21] 63.8% | viability, T/C [22] 52.6% | viability, T/C [23] 41.6% | viability, T/C [24] 32.9% | viability, T/C [25] 87.7% | viability, T/C [26] 79.6% | viability, T/C [27] 66.2% | viability, T/C [28] 54.8% | viability, T/C [29] 48.1% | viability, T/C [30] 35.1% | viability, T/C [31] 85.6% | viability, T/C [32] 77.6% | viability, T/C [33] 70.5% | viability, T/C [34] 62.8% | viability, T/C [35] 49.7% | viability, T/C [36] 38.3%
59 nM: IC50 (second compound 0.316 µM)
98 nM: IC50 (second compound 1 µM)
46.6 nM: IC50 (second compound 0.0316 µM)
76 nM: IC50 (second compound 0.01 µM)

CCc1c2c(nc3ccc(O)cc13)-c1cc3c(c(=O)n1C2)COC(=O)[C@]3(O)CC + C=CC(=O)N1CCN(c2nc(OCC3CCCN3C)nc3c(F)c(-c4nc(N)cc(C)c4C(F)(F)F)c(Cl)cc23)C(C)C1
4.04 nM: IC50 (second compound 0.0316 µM)
4.8 nM: IC50 (second compound 0.01 µM)
active: viability, T/C [4] 4.07% | viability, T/C [5] 2.12% | viability, T/C [6] 1.09% | viability, T/C [9] 9.78% | viability, T/C [10] 4.25% | viability, T/C [11] 2.46% | viability, T/C [12] 1.37% | viability, T/C [15] 8.38% | viability, T/C [16] 4.14% | viability, T/C [17] 2.38% | viability, T/C [18] 1.15% | viability, T/C [21] 9.95% | viability, T/C [22] 2.92% | viability, T/C [23] 1.65% | viability, T/C [24] 1.21% | viability, T/C [27] 7.81% | viability, T/C [28] 3.82% | viability, T/C [29] 2.34% | viability, T/C [30] 2.52% | viability, T/C [33] 8.23% | viability, T/C [34] 5.41% | viability, T/C [35] 2.4% | viability, T/C [36] 1.32%
4.75 nM: IC50 (second compound 0.316 µM)
5.1 nM: IC50 (second compound 0.00316 µM)
4.35 nM: IC50 (second compound 1 µM)
4.57 nM: IC50 (second compound 0.1 µM)
inactive: viability, T/C [1] 88.5% | viability, T/C [2] 84% | viability, T/C [3] 10.2% | viability, T/C [7] 89% | viability, T/C [8] 77.8% | viability, T/C [13] 88.3% | viability, T/C [14] 64.4% | viability, T/C [19] 75.2% | viability, T/C [20] 73.2% | viability, T/C [25] 83.4% | viability, T/C [26] 77.9% | viability, T/C [31] 82.2% | viability, T/C [32] 69.9%
